This experiment relates to Hep3B cells (hepatocellular carcinoma cell line). In words: In vitro MTS cell viability assay (NCI-60 methodology), Hep3B. As to conditions: Homo sapiens, 48 h, 2 days drug incubation, 50% reduction vs time zero, read-out: Hep3B LC50. Format: cell-based. An outline of the steps: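 Hep3B cells given five 2-fold dilutions of compound for 2 days, with viability by MTS measured at time zero and at end. LC50 is the concentration giving a 50% fall in viable cells relative to the start of treatment, per NCI-60 formula.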

Read-outs that look alike come from different tables or passages of the source. A value given as a limit tells only on which side of the number the result lay.

One may read the LC50 as the concentration lethal to half of the exposed cells or organisms. Take `CC(C)n1ncc2c(NC(=O)c3ccc([N+](=O)[O-])s3)nc(-c3ccc(C(F)(F)F)cc3)nc21` [Compound 1-24, N-(1-isopropyl-6-(4-(trifluoromethyl)phenyl)-1H-pyrazolo[3,4-d]pyrimidin-4-yl)-5-nitrothiophene-2-carboxamide]: the LC50 (Table 1, MTS) is 0.9 µM.
Consider `CC(C)n1cc2nc(-c3ccc(C(C)(C)C)cc3)nc(NC(=O)c3ccc([N+](=O)[O-])s3)c2c1` [Compound 3-12, N-(2-(4-(tert-butyl)phenyl)-6-isopropyl-6H-pyrrolo[3,4-d]pyrimidin-4-yl)-5-nitrothiophene-2-carboxamide], for which the LC50 (Table 3, MTS) is more than 10 µM.
For the compound `CCOCCOCCOc1nc(NC(=O)c2ccc([N+](=O)[O-])s2)c2cnn(-c3ccc(C(C)(C)C)cc3)c2n1` [Compound 6-61], where the note is “Table 6, MTS”, the LC50 stood at 0.54 µM.
On to `CN(C)CCOc1nc(NC(=O)c2ccc([N+](=O)[O-])s2)c2cnn(-c3ccccc3)c2n1` [Compound 5-11, N-(6-(2-(dimethylamino)ethoxy)-1-phenyl-1H-pyrazolo[3,4-d]pyrimidin-4-yl)-5-nitrothiophene-2-carboxamide], for which the 50% lethal concentration (LC50) (Table 5, MTS) was found to be 4.13 µM.
Take `Cc1ccc(-c2nc(NC(=O)c3ccc([N+](=O)[O-])s3)c3cnn(Cc4ccccc4)c3n2)cn1` [Compound 7-17, N-(1-benzyl-6-(6-methylpyridin-3-yl)-1H-pyrazolo[3,4-d]pyrimidin-4-yl)-5-nitrothiophene-2-carboxamide]: the LC50 (Table 7, MTS) is more than 1.25 µM.
In the case of `CCOCCOc1ccc(-c2nc(NC(=O)c3ccc([N+](=O)[O-])s3)c3cnn(-c4ccc(F)cc4)c3n2)cn1` [Compound 6-136, N-(6-(6-(2-ethoxyethoxy)pyridin-3-yl)-1-(4-fluorophenyl)-1H-pyrazolo[3,4-d]pyrimidin-4-yl)-5-nitrothiophene-2-carboxamide], the LC50 (Table 6, MTS) was 0.26 µM.
With `O=C(Nc1nc(-c2ccsc2)nc2c1cnn2-c1ccc(F)cc1)c1ccc([N+](=O)[O-])s1` [Compound 6-107], the LC50 (Table 6, MTS) came to 0.37 µM.
For the compound `O=C(Nc1nc(-c2ccc(F)cc2Cl)nc2c1cnn2C1CCCCC1)c1ccc([N+](=O)[O-])s1` [Compound 10-46, N-(6-(2-chlor-4-fluorophenyl)-1-cyclohexyl-1H-pyrazolo[3,4-d]pyrimidin-4-yl)-5-nitrothiophene-2-carboxamide], the LC50 (Table 10, MTS) was 1.03 µM.
Take `O=C(Nc1nc(-c2ccc(Cl)cc2)nc2c1cnn2C1CCN(C(=O)OCCCC(F)(F)F)CC1)c1ccc([N+](=O)[O-])s1` [Compound 9-9]: for the setting “Table 9, MTS”, the LC50 turned out to be 1.07 µM.
`O=C(Nc1nc(-c2ccc(Cl)cc2)nc2c1cnn2-c1ccc(F)cc1F)c1ccc([N+](=O)[O-])s1` [Compound 7-14]: where the note is “Table 7, MTS”, the LC50 amounted to 0.58 µM.
Regarding `O=C(Nc1nc(-c2ccc(Cl)s2)nc2c1cnn2C1CCCCC1)c1ccc([N+](=O)[O-])s1` [Compound 10-8, N-(6-(5-chlorothiophen-2-yl)-1-cyclohexyl-1H-pyrazolo[3,4-d]pyrimidin-4-yl)-5-nitrothiophene-2-carboxamide], for the setting “Table 10, MTS”, the LC50 came to 0.49 µM.
Take `CCOCCOCCOc1ccc(-c2nc(NC(=O)c3ccc([N+](=O)[O-])s3)c3cnn(-c4ccccc4)c3n2)cn1` [Compound 5-57, N-(6-(6-(2-(2-ethoxyethoxy)ethoxy)pyridin-3-yl)-1-phenyl-1H-pyrazolo[3,4-d]pyrimidin-4-yl)-5-nitrothiophene-2-carboxamide]: for the setting “Table 5, MTS”, the LC50 came to 0.79 µM.
`COCCOc1ccc(-c2nc(NC(=O)c3ccc([N+](=O)[O-])s3)c3cnn(-c4ccc(C)cc4)c3n2)cn1` [Compound 6-12, N-(6-(6-(2-methoxyethoxy)pyridin-3-yl)-1-(p-tolyl)-1H-pyrazolo[3,4-d]pyrimidin-4-yl)-5-nitrothiophene-2-carboxamide]: the LC50 (Table 6, MTS) was 0.26 µM.
Still for that read-out and setting: the same measure for `CCCOC[C@@H]1CCCN1c1nc(NC(=O)c2ccc([N+](=O)[O-])s2)c2cnn(-c3ccc(F)cc3)c2n1` [Compound 6-105, (S)—N-(1-(4-fluorophenyl)-6-(2-(propoxymethyl)pyrrolidin-1-yl)-1H-pyrazolo[3,4-d]pyrimidin-4-yl)-5-nitrothiophene-2-carboxamide]: 0.42 µM.
As to `Cc1csc2c(NC(=O)c3ccc([N+](=O)[O-])s3)nc(-c3ccc(C(F)(F)F)cc3F)nc12` [Compound 4-14, N-(2-(2-fluoro-4-(trifluoromethyl)phenyl)-7-methylthieno[3,2-d]pyrimidin-4-yl)-5-nitrothiophene-2-carboxamide], the LC50 (Table 4, MTS) came out at 1.35 µM.
`CCOCCOCCOc1cc(Cl)ccc1-c1nc(NC(=O)c2ccc([N+](=O)[O-])s2)c2cnn(-c3ccc(F)cc3)c2n1` [Compound 6-140, N-(6-(4-chloro-2-(2-(2-ethoxyethoxy)ethoxy)phenyl)-1-(4-fluorophenyl)-1H-pyrazolo[3,4-d]pyrimidin-4-yl)-5-nitrothiophene-2-carboxamide]: the LC50 (Table 6, MTS) is 4.83 µM.
With `C=CC(=O)N1CCC(c2nc(NC(=O)c3ccc([N+](=O)[O-])s3)c3cnn(-c4ccccc4)c3n2)CC1` [Compound 5-2, N-(6-(1-acryloylpiperidin-4-yl)-1-phenyl-1H-pyrazolo[3,4-d]pyrimidin-4-yl)-5-nitrothiophene-2-carboxamide], under “Table 5, MTS”, the LC50 was 2.47 µM.
With `CC1CC(C)CC(n2ncc3c(NC(=O)c4ccc([N+](=O)[O-])s4)nc(-c4ccc(F)cc4)nc32)C1` (centres unmarked) [Compound 10-67, N-(1-(3,5-dimethylcyclohexyl)-6-(4-fluorophenyl)-1H-pyrazolo[3,4-d]pyrimidin-4-yl)-5-nitrothiophene-2-carboxamide], the LC50 (Table 10, MTS) was 0.65 µM.
With `CC(C)(C)c1ccc(-n2ncc3c(NC(=O)c4ccc([N+](=O)[O-])s4)nc(N4CCCCC4)nc32)cc1` [Compound 6-63, N-(1-(4-(tert-butyl)phenyl)-6-(piperidin-1-yl)-1H-pyrazolo[3,4-d]pyrimidin-4-yl)-5-nitrothiophene-2-carboxamide], the LC50 (Table 6, MTS) was determined as 1.92 µM.
Turning to `COCCOc1ccc(-c2nc(NC(=O)c3ccc([N+](=O)[O-])s3)c3cnn(-c4cccc(F)c4)c3n2)cn1` [Compound 6-94, N-(1-(3-fluorophenyl)-6-(6-(2-methoxyethoxy)pyridin-3-yl)-1H-pyrazolo[3,4-d]pyrimidin-4-yl)-5-nitrothiophene-2-carboxamide], the LC50 (Table 6, MTS) was 0.28 µM.
As to `CS(=O)(=O)c1ccc(-c2nc(NC(=O)c3ccc([N+](=O)[O-])s3)c3cnn(C4CCCCC4)c3n2)cc1` [Compound 10-34, N-(1-cyclohexyl-6-(4-(methylsulfonyl)phenyl)-1H-pyrazolo[3,4-d]pyrimidin-4-yl)-5-nitrothiophene-2-carboxamide], the LC50 (Table 10, MTS) worked out at 0.93 µM.
Turning to `COC(=O)[C@@H]1CCCN1c1nc(NC(=O)c2ccc([N+](=O)[O-])s2)c2cnn(-c3ccc(F)cc3)c2n1` [Compound 6-100, methyl (1-(4-fluorophenyl)-4-(5-nitrothiophene-2-carboxamido)-1H-pyrazolo [3,4-d]pyrimidin-6-yl)-L-prolinate], the LC50 (Table 6, MTS) came out at 0.74 µM.
Take `O=C(Nc1nc(-c2ccc(C(F)(F)F)cc2)nc2c1cnn2-c1ccc(F)cc1)c1ccc([N+](=O)[O-])s1` [Compound 6-122, N-(1-(4-fluorophenyl)-6-(4-(trifluoromethyl)phenyl)-1H-pyrazolo[3,4-d]pyrimidin-4-yl)-5-nitrothiophene-2-carboxamide]: under “Table 6, MTS”, the 50% lethal concentration (LC50) was 0.28 µM.

The values above are taken from US20240150356A1, “Pyrimidine amide compounds and use thereof” (ALPHALA CO., LTD., priority 2019, published 2024).
